# Measured values from ChEMBL document CHEMBL4130359, “Indazole-based ligands for estrogen-related receptor α as potential anti-diabetic agents” (Eur J Med Chem, 2017).
# Active and inactive are the calls of the source. The rule behind the calls is not given here.
# Assays:
# Rattus norvegicus [1] = assay: Toxicity in […] chronic ob/ob model assessed as food intake at 10 mg/kg, po qd for 28 days measured on day 1 to 28 during compound dosing (reference value: 170.6 +/- 3 g); format: organism-based; conditions: in vivo, 672 h
# Rattus norvegicus [2] = assay: Toxicity in Zucker rat sub-chronic fa/fa prediabetic model assessed as change in body weight at 3 mg/kg, po qd for 29 days measured on day 1 to 29 during compound dosing (reference value: 140 +/- 7 g); format: organism-based; conditions: in vivo, 696 h
# [3] = Terminal half life in CD-1 mouse at 20 mg/kg administered via oral gavage by LC-MS analysis; format: ADME, organism-based; conditions: in vivo, read-out: beta t1/2 (converted)
# Rattus norvegicus [4] = assay: Toxicity in Zucker rat sub-chronic fa/fa prediabetic model assessed as body weight at 3 mg/kg, po qd for 29 days measured on day 29 post last dose (reference value: 533 +/- 10 g); format: organism-based; conditions: in vivo, 696 h
# Rattus norvegicus [5] = assay: Effect on THEM4 gene expression in epididymal white adipose tissue of Zucker rat sub-chronic fa/fa prediabetic model at 10 mg/kg, po qd for 15 days by microarray analysis relative to control; format: functional
# [6] = Drug uptake in plasma of Zucker rat sub-chronic fa/fa prediabetic model at 12.5 mg/kg, po qd for 11 days; format: ADME, organism-based
# Rattus norvegicus [7] = assay: Effect on DBT gene expression in epididymal white adipose tissue of Zucker rat sub-chronic fa/fa prediabetic model at 10 mg/kg, po qd for 15 days by microarray analysis relative to control; format: functional
# Rattus norvegicus [8] = assay: Toxicity in […] chronic ob/ob model assessed as decrease in epididymal white adipose tissue weight at administered po qd for 31 days measured on day 32; format: organism-based; conditions: in vivo, 744 h
# Rattus norvegicus [9] = assay: Toxicity in Zucker rat sub-chronic fa/fa prediabetic model assessed as serum BUN level at 50 mg/kg, po qd for 31 days measured on day 32 (reference value: 28.3 +/- […]); format: organism-based; conditions: in vivo, 744 h
# [10] = Cmax in […] chronic ob/ob model at 10 mg/kg, po qd measured on day 1 post dose; format: ADME, organism-based; set-up: dose 10 mg/kg, route oral; conditions: in vivo
# Rattus norvegicus [11] = assay: Effect on TGFB1 gene expression in epididymal white adipose tissue of Zucker rat sub-chronic fa/fa prediabetic model at 10 mg/kg, po qd for 15 days by microarray analysis relative to control; format: functional
# [12] = AUC (0 to 24 hrs) in Sprague-Dawley rat at 10 mg/kg administered via oral gavage by LC-MS analysis; format: ADME, organism-based; set-up: dose 10 mg/kg, time < 24 hr, route oral; conditions: in vivo
# [13] = Cmax in Zucker rat sub-chronic fa/fa prediabetic model at 3 mg/kg, po qd for 26 days measured on day 26 post last dose; format: ADME, organism-based; set-up: dose 3 mg/kg, route oral; conditions: in vivo
# Rattus norvegicus [14] = assay: Effect on MSMO1 gene expression in epididymal white adipose tissue of Zucker rat sub-chronic fa/fa prediabetic model at 10 mg/kg, po qd for 15 days by microarray analysis relative to control; format: functional
# [15] = Oral bioavailability in Sprague-Dawley rat at 10 mg/kg administered via gavage by LC-MS analysis; format: ADME, organism-based; conditions: in vivo
# Rattus norvegicus [16] = assay: Effect on LPIN2 gene expression in epididymal white adipose tissue of Zucker rat sub-chronic fa/fa prediabetic model at 10 mg/kg, po qd for 15 days by microarray analysis relative to control; format: functional
# Rattus norvegicus [17] = assay: Toxicity in Zucker rat sub-chronic fa/fa prediabetic model assessed as triglyceride level per gram liver at 50 mg/kg, po qd for 31 days measured on day 32 (reference value: 163.4 +/- 8.3 mg); format: organism-based; conditions: in vivo, 744 h
# Rattus norvegicus [18] = assay: Effect on ACOT2 gene expression in epididymal white adipose tissue of Zucker rat sub-chronic fa/fa prediabetic model at 10 mg/kg, po qd for 15 days by microarray analysis relative to control; format: functional
# Rattus norvegicus [19] = assay: Toxicity in Zucker rat sub-chronic fa/fa prediabetic model assessed as insulin level per gram pancreas at 10 mg/kg, po qd for 31 days measured on day 32 (reference value: 55.2 +/- 5.5 ug); format: organism-based; conditions: in vivo, 744 h
# Rattus norvegicus [20] = assay: Effect on NDUFV3 gene expression in epididymal white adipose tissue of Zucker rat sub-chronic fa/fa prediabetic model at 10 mg/kg, po qd for 15 days by microarray analysis relative to control; format: functional
# Rattus norvegicus [21] = assay: Effect on AGPAT3 gene expression in epididymal white adipose tissue of Zucker rat sub-chronic fa/fa prediabetic model at 10 mg/kg, po qd for 15 days by microarray analysis relative to control; format: functional
# Rattus norvegicus [22] = assay: Toxicity in Zucker rat sub-chronic fa/fa prediabetic model assessed as serum cholesterol level at 10 mg/kg, po qd for 31 days measured on day 32 (reference value: 295 +/- 91 mg/dl); format: organism-based; conditions: in vivo, 744 h
# Rattus norvegicus [23] = assay: Effect on NFKBIB gene expression in epididymal white adipose tissue of Zucker rat sub-chronic fa/fa prediabetic model at 10 mg/kg, po qd for 15 days by microarray analysis relative to control; format: functional
# Rattus norvegicus [24] = assay: Toxicity in Zucker rat sub-chronic fa/fa prediabetic model assessed as serum triglyceride level at 10 mg/kg, po qd for 31 days measured on day 32 (reference value: 1382 +/- 268 mg/dl); format: organism-based; conditions: in vivo, 744 h
# Rattus norvegicus [25] = format: functional, Zucker
# Rattus norvegicus [26] = assay: Toxicity in […] model assessed as serum BUN level at 50 mg/kg, po qd for 31 days measured on day 32 (reference value: 28.3 +/- […]); format: organism-based; conditions: in vivo, 744 h
# [27] = Terminal half life in ob/ob mouse at 18 mg/kg administered via oral gavage by LC-MS analysis; format: ADME, organism-based; conditions: in vivo, read-out: beta t1/2 (converted)
# Rattus norvegicus [28] = assay: Increase in ERRalpha mRNA expression in epididymal white adipose tissue of Zucker rat sub-chronic fa/fa prediabetic model at 10 mg/kg, po qd for 15 days by RT-PCR method; format: functional, organism-based
# Rattus norvegicus [29] = assay: Toxicity in Zucker rat sub-chronic fa/fa prediabetic model assessed as serum triglyceride level at 50 mg/kg, po qd for 31 days measured on day 32 (reference value: 1382 +/- 268 mg/dl); format: organism-based; conditions: in vivo, 744 h
# [30] = Volume of distribution at steady state in Sprague-Dawley rat at 2 mg/kg, iv by LC-MS analysis; format: ADME, organism-based; conditions: in vivo, read-out: Vdss
# Rattus norvegicus [31] = assay: Effect on HLA-DRB1 gene expression in epididymal white adipose tissue of Zucker rat sub-chronic fa/fa prediabetic model at 10 mg/kg, po qd for 15 days by microarray analysis relative to control; format: functional
# Rattus norvegicus [32] = assay: Effect on AADAT gene expression in epididymal white adipose tissue of Zucker rat sub-chronic fa/fa prediabetic model at 10 mg/kg, po qd for 15 days by microarray analysis relative to control; format: functional
# Rattus norvegicus [33] = assay: Effect on NDUFA6 gene expression in epididymal white adipose tissue of Zucker rat sub-chronic fa/fa prediabetic model at 10 mg/kg, po qd for 15 days by microarray analysis relative to control; format: functional
# Rattus norvegicus [34] = assay: Toxicity in Zucker rat sub-chronic fa/fa prediabetic model assessed as liver weight at 50 mg/kg, po qd for 31 days measured on day 32 (reference value: 28 +/- 1.6 g); format: organism-based; conditions: in vivo, 744 h
# Rattus norvegicus [35] = assay: Effect on PLCB1 gene expression in epididymal white adipose tissue of Zucker rat sub-chronic fa/fa prediabetic model at 10 mg/kg, po qd for 15 days by microarray analysis relative to control; format: functional
compound,measurement,setting,value
CN1CC[C@@H](N2C(=O)S/C(=C\c3ccc4c(cnn4Cc4ccc(Cl)cc4C(F)(F)F)c3)C2=O)[C@H](F)C1,Activity,Rattus norvegicus [1],167.8 g
same,Activity,Rattus norvegicus [2],160 g
same,half-life,[3],10.6 h
same,Activity,Rattus norvegicus [4],561 g
same,fold change (FC),Rattus norvegicus [5],1.465
same,concentration at 264 h,[6],814 ng/mL
same,fold change (FC),Rattus norvegicus [7],-1.217
same,Activity,Rattus norvegicus [8],Dose-dependent effect
same,Activity,Rattus norvegicus [9],23.9 mg/dL
same,Cmax,[10],520 ng/mL
same,fold change (FC),Rattus norvegicus [11],-1.47
same,AUC(0-t) at 24 h,[12],5410 ng·h/mL
same,Cmax,[13],1220 ng/mL
same,fold change (FC),Rattus norvegicus [14],-1.271
same,bioavailability,[15],84%
same,fold change (FC),Rattus norvegicus [16],1.548
same,Activity,Rattus norvegicus [17],69.4 mg
same,fold change (FC),Rattus norvegicus [18],1.364
same,Activity,Rattus norvegicus [19],80.1 µg
same,fold change (FC),Rattus norvegicus [20],1.257
same,fold change (FC),Rattus norvegicus [21],-1.213
same,Activity,Rattus norvegicus [22],197 mg/dL
same,fold change (FC),Rattus norvegicus [23],1.31
same,Activity,Rattus norvegicus [24],341 mg/dL
same,Activity,Rattus norvegicus [25],17.3%
same,Activity,Rattus norvegicus [26],29.5 mg/dL
same,half-life,[27],8.1 h
same,Activity,Rattus norvegicus [28],Active
same,Activity,Rattus norvegicus [29],198 mg/dL
same,Vd,[30],11.2 L/kg
same,fold change (FC),Rattus norvegicus [31],-1.334
same,fold change (FC),Rattus norvegicus [32],2.931
same,fold change (FC),Rattus norvegicus [33],1.277
same,Activity,Rattus norvegicus [34],17.8 g
same,fold change (FC),Rattus norvegicus [35],1.58
